Assay results as given in PubChem BioAssay (NCI).
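Five compound concentrations were applied to cells in 96-well plates for 48 hours; endpoints were derived by simple linear interpolation of the resulting dose-response curve. TGI: total growth inhibition.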

Columns and labels:
Test in all cases: NCI-60 cell line screen, 48 h
[1] = tested on: PC-3 prostate
[2] = tested on: A498 renal
[3] = tested on: LOX IMVI melanoma
[4] = tested on: CAKI-1 renal
[5] = tested on: SF-268 CNS
[6] = tested on: UACC-257 melanoma
[7] = tested on: IGROV1 ovarian
[8] = tested on: TK-10 renal
[9] = tested on: BT-549 breast
[10] = tested on: NCI-H522 lung
[11] = tested on: DU-145 prostate
[12] = tested on: MALME-3M melanoma
[13] = tested on: SF-539 CNS
[14] = tested on: T-47D breast
[15] = tested on: KM12 colon
[16] = tested on: OVCAR-8 ovarian
[17] = tested on: SNB-75 CNS
[18] = tested on: SK-MEL-5 melanoma
[19] = tested on: M14 melanoma
[20] = tested on: SN12C renal
[21] = tested on: SNB-19 CNS
[22] = tested on: A549 NSCLC
[23] = tested on: NCI-H23 lung
[24] = tested on: SK-OV-3 ovarian
[25] = tested on: HOP-62 NSCLC
[26] = tested on: UACC-62 melanoma
[27] = tested on: MDA-MB-231 breast
[28] = tested on: HT29 colon
[29] = tested on: ACHN renal
[30] = tested on: MDA-N
[31] = tested on: SK-MEL-28 melanoma
[32] = tested on: SK-MEL-2 melanoma
[33] = tested on: RPMI-8226 leukemia
[34] = tested on: SW-620 colon
[35] = tested on: HCT-15 colon
[36] = tested on: MCF7 breast
[37] = tested on: COLO 205 colon
[38] = tested on: NCI-H226 lung
[39] = tested on: K-562 leukemia
[40] = tested on: MDA-MB-435
[41] = tested on: NCI/ADR-RES ovarian
[42] = tested on: EKVX NSCLC
[43] = tested on: CCRF-CEM leukemia
[44] = tested on: OVCAR-3 ovarian
[45] = tested on: OVCAR-4 ovarian
[46] = tested on: SF-295 CNS
[47] = tested on: HOP-92 NSCLC
[48] = tested on: HCT-116 colon
[49] = tested on: UO-31 renal
[50] = tested on: HS 578T breast
[51] = tested on: U251 CNS
[52] = tested on: 786-0 renal
[53] = tested on: OVCAR-5 ovarian
[54] = tested on: RXF 393 renal
[55] = tested on: HCC-2998 colon
[56] = tested on: HL-60(TB) leukemia
[57] = tested on: SR leukemia
[58] = tested on: NCI-H460 lung
[59] = tested on: MOLT-4 leukemia

For `CC(C)(C)c1cc(C(CO)OCCOCCO)cc(C(C)(C)C)c1O` (stereo not given), the TGI [1] was greater than 100 µM, the TGI [2] was greater than 100 µM and the TGI [3] was greater than 100 µM. It also gave a TGI [4] greater than 100 µM, a TGI [5] greater than 100 µM and a TGI [6] greater than 100 µM. For the same compound, the TGI [7] was greater than 100 µM, the TGI [8] was greater than 100 µM and the TGI [9] was greater than 100 µM. It also gave a TGI [10] greater than 100 µM, a TGI [11] greater than 100 µM and a TGI [12] greater than 100 µM. For the same compound, the TGI [13] was greater than 100 µM, the TGI [14] was greater than 100 µM and the TGI [15] was greater than 100 µM. It also gave a TGI [16] greater than 100 µM, a TGI [17] greater than 100 µM and a TGI [18] greater than 100 µM. The TGI [19] was greater than 100 µM, the TGI [20] was greater than 100 µM and the TGI [21] was greater than 100 µM. For the same compound, the TGI [22] was greater than 100 µM, the TGI [23] was greater than 100 µM and the TGI [24] was greater than 100 µM. For the same compound, the TGI [25] was greater than 100 µM, the TGI [26] was greater than 100 µM and the TGI [27] was greater than 100 µM. For the same compound, the TGI [28] was greater than 100 µM, the TGI [29] was greater than 100 µM and the TGI [30] was greater than 100 µM. It also gave a TGI [31] greater than 100 µM, a TGI [32] greater than 100 µM and a TGI [33] greater than 100 µM. For the same compound, the TGI [34] was greater than 100 µM, the TGI [35] was greater than 100 µM and the TGI [36] was greater than 100 µM. For the same compound, the TGI [37] was greater than 100 µM, the TGI [38] was greater than 100 µM and the TGI [39] was greater than 100 µM. For the same compound, the TGI [40] was greater than 100 µM, the TGI [41] was greater than 100 µM and the TGI [42] was greater than 100 µM. The TGI [43] was greater than 100 µM, the TGI [44] was greater than 100 µM and the TGI [45] was greater than 100 µM. It also gave a TGI [46] greater than 100 µM, a TGI [47] greater than 100 µM and a TGI [48] greater than 100 µM. The TGI [49] was greater than 100 µM, the TGI [50] was greater than 100 µM and the TGI [51] was greater than 100 µM. The TGI [52] was greater than 100 µM, the TGI [53] was greater than 100 µM and the TGI [54] was greater than 100 µM.

For `Oc1ccc(-c2nc(-c3ccc(F)cc3)c(-c3ccc4ccccc4n3)[nH]2)cc1`, the TGI [1] was 22.6 µM, the TGI [3] was 27.9 µM and the TGI [4] was 31.3 µM. For the same compound, the TGI [5] was 43.8 µM, the TGI [6] was 26.3 µM and the TGI [55] was 15.3 µM. The TGI [7] was 26.5 µM, the TGI [8] was 26 µM and the TGI [9] was 36.6 µM. It also gave a TGI [11] of 34.8 µM, a TGI [12] of 28.3 µM and a TGI [14] of 25.1 µM. The TGI [15] was 19.1 µM, the TGI [16] was 32 µM and the TGI [56] was greater than 100 µM. For the same compound, the TGI [17] was 41.6 µM, the TGI [18] was 17.7 µM and the TGI [19] was 22.9 µM. For the same compound, the TGI [20] was 32.1 µM, the TGI [21] was 37.1 µM and the TGI [57] was greater than 100 µM. It also gave a TGI [22] of 27 µM, a TGI [23] of 25.4 µM and a TGI [24] of 30.7 µM. The TGI [25] was 33.4 µM, the TGI [26] was 23.6 µM and the TGI [27] was 41.4 µM. The TGI [28] was 20.2 µM, the TGI [29] was 24.9 µM and the TGI [30] was 27.9 µM. For the same compound, the TGI [31] was 37.7 µM, the TGI [32] was 32.9 µM and the TGI [33] was greater than 100 µM. It also gave a TGI [34] of 29.1 µM, a TGI [35] of 23.6 µM and a TGI [36] of 18.7 µM. For the same compound, the TGI [37] was 29.7 µM, the TGI [38] was 28.6 µM and the TGI [39] was greater than 100 µM. For the same compound, the TGI [40] was 29.6 µM, the TGI [58] was 18.4 µM and the TGI [41] was 20.5 µM. It also gave a TGI [42] of 40.7 µM, a TGI [43] greater than 100 µM and a TGI [44] of 20.3 µM. For the same compound, the TGI [45] was 26.3 µM, the TGI [46] was 24 µM and the TGI [59] was 25.2 µM. For the same compound, the TGI [48] was 32.4 µM, the TGI [49] was 26.1 µM and the TGI [50] was 28.6 µM. The TGI [51] was 24.4 µM, the TGI [52] was 66 µM and the TGI [53] was 39.8 µM. It also gave a TGI [54] of 31.9 µM.

`COc1ccc(/C=N/n2c(-c3ccccc3)n[nH]c2=O)cc1` showed a TGI [1] greater than 100 µM, a TGI [2] greater than 100 µM and a TGI [4] greater than 100 µM. For the same compound, the TGI [5] was greater than 100 µM, the TGI [6] was greater than 100 µM and the TGI [55] was greater than 100 µM. It also gave a TGI [9] greater than 100 µM, a TGI [11] greater than 100 µM and a TGI [12] greater than 100 µM. The TGI [13] was greater than 100 µM, the TGI [14] was greater than 100 µM and the TGI [15] was greater than 100 µM. It also gave a TGI [16] greater than 100 µM, a TGI [17] greater than 100 µM and a TGI [19] greater than 100 µM. It also gave a TGI [20] greater than 100 µM, a TGI [21] greater than 100 µM and a TGI [22] greater than 100 µM. It also gave a TGI [23] greater than 100 µM, a TGI [24] greater than 100 µM and a TGI [25] greater than 100 µM. The TGI [26] was greater than 100 µM, the TGI [27] was greater than 100 µM and the TGI [28] was greater than 100 µM. It also gave a TGI [29] greater than 100 µM, a TGI [30] greater than 100 µM and a TGI [31] greater than 100 µM. The TGI [32] was greater than 100 µM, the TGI [33] was greater than 100 µM and the TGI [34] was greater than 100 µM. The TGI [35] was greater than 100 µM, the TGI [36] was greater than 100 µM and the TGI [37] was greater than 100 µM. It also gave a TGI [38] greater than 100 µM, a TGI [39] greater than 100 µM and a TGI [40] greater than 100 µM. For the same compound, the TGI [58] was greater than 100 µM, the TGI [41] was greater than 100 µM and the TGI [42] was greater than 100 µM. For the same compound, the TGI [43] was greater than 100 µM, the TGI [44] was greater than 100 µM and the TGI [45] was greater than 100 µM. For the same compound, the TGI [46] was greater than 100 µM, the TGI [59] was greater than 100 µM and the TGI [48] was greater than 100 µM. It also gave a TGI [49] greater than 100 µM, a TGI [50] of 93.7 µM and a TGI [51] greater than 100 µM. The TGI [52] was greater than 100 µM and the TGI [53] was greater than 100 µM.

`CSc1ncnc2c1cnn2CCCCO` gave a TGI [1] greater than 100 µM, a TGI [2] greater than 100 µM and a TGI [3] greater than 100 µM. The TGI [4] was greater than 100 µM, the TGI [5] was greater than 100 µM and the TGI [6] was greater than 100 µM. For the same compound, the TGI [55] was greater than 100 µM, the TGI [7] was greater than 100 µM and the TGI [8] was greater than 100 µM. For the same compound, the TGI [9] was greater than 100 µM, the TGI [10] was greater than 100 µM and the TGI [11] was greater than 100 µM. It also gave a TGI [12] greater than 100 µM, a TGI [13] greater than 100 µM and a TGI [14] greater than 100 µM. It also gave a TGI [15] greater than 100 µM, a TGI [56] greater than 100 µM and a TGI [18] greater than 100 µM. For the same compound, the TGI [19] was greater than 100 µM, the TGI [20] was greater than 100 µM and the TGI [21] was greater than 100 µM. For the same compound, the TGI [57] was greater than 100 µM, the TGI [22] was greater than 100 µM and the TGI [23] was greater than 100 µM. The TGI [24] was greater than 100 µM, the TGI [25] was greater than 100 µM and the TGI [26] was greater than 100 µM. It also gave a TGI [27] greater than 100 µM, a TGI [28] greater than 100 µM and a TGI [29] greater than 100 µM. The TGI [30] was greater than 100 µM, the TGI [31] was greater than 100 µM and the TGI [32] was greater than 100 µM. It also gave a TGI [33] greater than 100 µM, a TGI [34] greater than 100 µM and a TGI [35] greater than 100 µM. For the same compound, the TGI [36] was greater than 100 µM, the TGI [37] was greater than 100 µM and the TGI [38] was greater than 100 µM. It also gave a TGI [39] greater than 100 µM, a TGI [40] greater than 100 µM and a TGI [58] greater than 100 µM. It also gave a TGI [42] greater than 100 µM, a TGI [43] greater than 100 µM and a TGI [44] greater than 100 µM. The TGI [45] was greater than 100 µM, the TGI [46] was greater than 100 µM and the TGI [47] was greater than 100 µM. For the same compound, the TGI [59] was greater than 100 µM, the TGI [48] was greater than 100 µM and the TGI [49] was greater than 100 µM. It also gave a TGI [50] greater than 100 µM, a TGI [51] greater than 100 µM and a TGI [52] greater than 100 µM. For the same compound, the TGI [53] was greater than 100 µM and the TGI [54] was greater than 100 µM.
